Reference: US20250213563A1, “SUBSTITUTED PYRIMIDIN-4(3H)-ONES FOR USE IN TREATING CANCER” (NAVIRE PHARMA, INC., priority 2021, published 2025)
Read-outs that look alike come from different tables or passages of the source.

What was measured:
[1] = Single-dose pharmacokinetics, Sprague Dawley rat; type: in vivo, male); settings: for AUC(0-t): read-out: AUC0→24
Description: (§1) The pharmacokinetic (PK) parameters of Compound (10b) (freebase) were determined following single intravenous (IV) and oral (PO) administration in female CD-1 mouse, female C57BL/6 mouse (PO only), male Sprague Dawley rat, male Beagle dog, and male Cynomolgus monkey. Additional evaluation of the PK properties of Compound (10b) was obtained following single dose PO administration in female CD-1 mouse, male Sprague Dawley rat and male Beagle dog over a dose range spanning 10 to 300 mg/kg (mouse and rat) and 1 to 100 mg/kg (dog). The intravenous dose solutions were prepared in 20% DMSO-60% PEG400-20% water and the oral dose solutions as suspensions in 0.5% methylcellulose in water, unless otherwise noted. Plasma concentration profiles were generated from serial sampling in individual animals up to 24 hours post dose, except for the studies in mice where composite sampling methods were used (i.e. 3 sampling times per mouse; 9 mice per group). […] Exposures increased with increasing dose level across species, in a dose-proportional manner in mouse and dog, and in a greater than dose-proportional manner in rat (80× increase in AUC with a 30× increase in dosage).

[2] = test system: pERK in PBMC; test: Phase 1/1B first-in-human study, PBMC pERK inhibition; type: in vivo
[3] = Single-dose pharmacokinetics, Cynomolgus monkey; type: in vivo, male); settings: free base; for AUC(0-t): read-out: AUC0→24
Description: as §1

[4] = Single oral dose exposure in NOD/SCID mice; type: in vivo; settings: male, mouse; for Kp at 24 h: brain; for AUC(0-inf) / Cmax: plasma
Description: Male NOD/SCID mice (n=3 per group) were administered a single dose of Compound (10b) at 1, 3, 10, 30, and 100 mg/kg by oral gavage. Plasma was collected at 0.25, 1, 2, 4, 8, and 24 hours after each dose, and brains were collected at 24 hours after each dose. Compound (10b) concentrations were determined with LC-MS/MS.

[5] = test system: KYSE-520; test: 3D cell viability (CellTiter-Glo); type: cell-based; settings: Homo sapiens, 192 h; KYSE-520, EGFR^amp; 8 days of treatment; read-out: 3D CTG (IC50)
Description: (§2) The potency of Compound (10b) in a panel of human tumor cell lines with active MAPK signaling was assessed. Cell viability in a 3D culture system was assessed by measuring CellTiter-Glo (CTG) luminescence following 8 days of treatment with nine concentrations of Compound (10b). MAPK pathway signaling was assessed by measuring pERK protein levels and DUSP6 mRNA levels by homogeneous time resolved fluorescence (HTRF) and quantitative polymerase chain reaction (qPCR), respectively. […] These viability effects correlated with pERK inhibition (Table 2, FIG. 6B) and DUSP6 inhibition (FIG. 6C).

[6] = test system: NCI-H1299; test: 3D cell viability (CellTiter-Glo); type: cell-based; settings: Homo sapiens, 192 h; NCI-H1299, NRAS^Q61K; 8 days of treatment; read-out: 3D CTG (IC50)
Description: as §2

[7] = test system: NCI-H358; test: 3D cell viability (CellTiter-Glo); type: cell-based; settings: Homo sapiens, 192 h; NCI-H358, KRAS^G12C; 8 days of treatment; read-out: 3D CTG (IC50)
Description: as §2

[8] = test system: HCC827; test: 3D cell viability (CellTiter-Glo); type: cell-based; settings: Homo sapiens, 192 h; HCC827, EGFR^Ex19del; 8 days of treatment; read-out: 3D CTG (IC50)
Description: as §2

[9] = test system: NCI-H1975; test: 3D cell viability (CellTiter-Glo); type: cell-based; settings: Homo sapiens, 192 h; NCI-H1975, EGFR^L858R/T790M; 8 days of treatment; read-out: 3D CTG (IC50)
Description: as §2

[10] = molecular target: hERG potassium channel (Homo sapiens, UniProt Q12809); test: hERG manual whole cell patch clamp in CHO cells
Chain of hERG potassium channel (Q12809 whole entry): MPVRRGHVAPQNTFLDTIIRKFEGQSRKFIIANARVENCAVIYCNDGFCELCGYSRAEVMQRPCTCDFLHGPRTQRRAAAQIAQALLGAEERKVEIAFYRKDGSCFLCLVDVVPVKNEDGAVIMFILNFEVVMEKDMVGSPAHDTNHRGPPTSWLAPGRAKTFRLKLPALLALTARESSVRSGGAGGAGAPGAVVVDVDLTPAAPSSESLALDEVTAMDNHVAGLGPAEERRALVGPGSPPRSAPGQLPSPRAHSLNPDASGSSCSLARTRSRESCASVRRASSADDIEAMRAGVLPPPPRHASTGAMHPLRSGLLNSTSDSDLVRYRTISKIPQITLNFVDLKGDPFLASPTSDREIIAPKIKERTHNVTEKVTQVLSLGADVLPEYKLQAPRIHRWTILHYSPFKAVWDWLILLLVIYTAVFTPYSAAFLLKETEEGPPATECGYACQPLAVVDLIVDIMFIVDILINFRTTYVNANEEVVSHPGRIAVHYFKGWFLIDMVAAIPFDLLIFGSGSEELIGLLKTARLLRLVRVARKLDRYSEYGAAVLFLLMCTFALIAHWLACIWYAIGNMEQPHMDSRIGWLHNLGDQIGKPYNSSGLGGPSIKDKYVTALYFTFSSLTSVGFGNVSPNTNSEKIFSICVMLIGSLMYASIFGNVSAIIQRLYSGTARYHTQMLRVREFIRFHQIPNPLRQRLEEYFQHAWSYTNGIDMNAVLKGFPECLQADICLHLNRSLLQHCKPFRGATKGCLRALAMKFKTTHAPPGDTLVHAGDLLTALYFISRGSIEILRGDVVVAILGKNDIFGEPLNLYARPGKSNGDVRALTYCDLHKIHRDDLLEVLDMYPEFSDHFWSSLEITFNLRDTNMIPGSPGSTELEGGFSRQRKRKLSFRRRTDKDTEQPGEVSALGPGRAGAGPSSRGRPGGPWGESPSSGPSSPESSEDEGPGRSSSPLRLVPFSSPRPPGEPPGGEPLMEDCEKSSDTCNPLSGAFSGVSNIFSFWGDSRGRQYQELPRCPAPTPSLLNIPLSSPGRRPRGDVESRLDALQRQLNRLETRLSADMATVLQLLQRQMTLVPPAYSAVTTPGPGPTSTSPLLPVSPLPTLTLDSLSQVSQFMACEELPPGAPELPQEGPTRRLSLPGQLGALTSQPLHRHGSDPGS
Description: HERG channel currents were recorded from single cells using standard whole cell recording techniques. The cells were voltage clamped at a holding potential of −80 mV. The hERG current was activated by depolarizing at +20 mV for 5 sec, after which the current was taken back to −50 mV for 5 sec to remove the inactivation and observe the deactivating tail current. The K+ tail current through HERG channels observed during this step was allowed to stabilize under continuous bath perfusion. […] Steady state was considered reached when three consecutive super-imposable current records were collected.

[11] = molecular target: T1, human SHP-1 (Homo sapiens, UniProt P29350); test: Eurofins Panlabs spectrofluorimetric phosphatase assay; type: biochemical; settings: 10 μM
T1 construct: a panel of 14 full-length human phosphatases; purchased Eurofins Panlabs
T1 sequence (P29350 whole entry): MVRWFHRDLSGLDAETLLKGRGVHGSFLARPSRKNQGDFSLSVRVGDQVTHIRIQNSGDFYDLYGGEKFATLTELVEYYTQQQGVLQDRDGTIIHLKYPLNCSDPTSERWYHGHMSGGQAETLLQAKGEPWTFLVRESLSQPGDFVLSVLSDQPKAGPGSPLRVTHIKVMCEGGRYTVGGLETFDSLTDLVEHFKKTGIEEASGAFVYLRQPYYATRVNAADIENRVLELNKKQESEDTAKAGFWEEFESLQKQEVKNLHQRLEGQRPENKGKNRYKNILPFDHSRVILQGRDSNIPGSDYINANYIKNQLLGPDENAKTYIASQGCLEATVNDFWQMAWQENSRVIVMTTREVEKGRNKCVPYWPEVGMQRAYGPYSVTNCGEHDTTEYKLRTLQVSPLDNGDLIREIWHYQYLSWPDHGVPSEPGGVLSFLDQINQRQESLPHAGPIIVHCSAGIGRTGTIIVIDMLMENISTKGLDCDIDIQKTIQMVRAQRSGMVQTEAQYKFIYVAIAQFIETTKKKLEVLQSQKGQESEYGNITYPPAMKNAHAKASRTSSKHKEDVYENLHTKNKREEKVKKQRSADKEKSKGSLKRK
Description: The activity of Compound (10b) was also assessed against a panel of 14 full-length human phosphatases using spectrofluorimetric biochemical assays. These assays were conducted using the Eurofins Panlabs platform.

[12] = test system: panel of 73 receptors and ion channels and 12 additional enzymes; test: Eurofins Cerep off-target panel; settings: 10 μM
Description: In addition to the kinase and phosphatase screens, Compound (10b) (10 μM) was tested against a panel of 73 receptors and ion channels and 12 additional enzymes using the Eurofins Cerep platform. In this screen, inhibition or stimulation of >50% is considered to be a significant effect.

[13] = test system: NCI-H1299; test: pERK protein levels (HTRF); type: cell-based; settings: Homo sapiens; NCI-H1299, NRAS^Q61K
Description: as §2

[14] = test system: NCI-H358; test: pERK protein levels (HTRF); type: cell-based; settings: Homo sapiens; NCI-H358, KRAS^G12C
Description: as §2

[15] = test system: HCC827; test: pERK protein levels (HTRF); type: cell-based; settings: Homo sapiens; HCC827, EGFR^Ex19del
Description: as §2

[16] = test system: NCI-H1975; test: pERK protein levels (HTRF); type: cell-based; settings: Homo sapiens; NCI-H1975, EGFR^L858R/T790M
Description: as §2

[17] = male, Sprague Dawley, rat, plasma, IV 0.3 mg/kg, free base
[18] = male, Sprague Dawley, rat, plasma, oral 10 mg/kg, free base
[19] = male, cynomolgus monkey, plasma, IV 0.3 mg/kg
[20] = male, cynomolgus monkey, plasma, oral 1 mg/kg

Cc1c(N2CCC3(CC2)CO[C@@H](C)[C@H]3N)nc(C)n(-c2cccc(Cl)c2Cl)c1=O (atropisomer, axis not shown; (Ra)) [Compound (10b), 6-((3S,4S)-4-amino-3-methyl-2-oxa-8-azaspiro[4.5]decan-8-yl)-3-(Ra)-(2,3-dichlorophenyl)-2,5-dimethylpyrimidin-4(3H)-one]
half-life [1, 17]: 9.18 h | AUC(0-t) [1, 17]: 3.27 µM·h | clearance ([1]; male, Sprague Dawley, rat, plasma, IV 0.3 mg/kg, free base, read-out: Clp (converted)): 10.2 mL/min/kg | Vd ([1]; male, Sprague Dawley, rat, plasma, IV 0.3 mg/kg, free base, read-out: Vdss): 6.05 L/kg | Cmax [1, 18]: 3050 nM | AUC(0-t) [1, 18]: 19.1 µM·h | Tmax ([1]; male, Sprague Dawley, rat, plasma, oral 10 mg/kg, free base, read-out: Tmax (mean)): 0.92 h | Tmax ([1]; male, Sprague Dawley, rat, plasma, oral 300 mg/kg, read-out: mean Tmax): ≤ 8 h | F ([1]; oral 10 mg/kg, free base): 51.2% | increase in AUC ([1]; oral, with a 30× increase in dosage (10 to 300 mg/kg)): 80 × | inhibition at 550 mg ([2]; Homo sapiens, PBMC, 550 mg dose level, 24 h post dose): 90% | PBMC pERK inhibition ([2]; cohort 5 (550 mg), 4 hours post dose): ~95% | half-life [3, 19]: 6.44 h | AUC(0-t) [3, 19]: 1.82 µM·h | clearance ([3]; male, cynomolgus monkey, plasma, IV 0.3 mg/kg, read-out: Clp (converted)): 6 mL/min/kg | Vd ([3]; male, cynomolgus monkey, plasma, IV 0.3 mg/kg, read-out: Vdss): 2.74 L/kg | Cmax [3, 20]: 430 nM | Tmax [3, 20]: 2.67 h | AUC(0-t) [3, 20]: 4.52 µM·h | F ([3]; oral 1 mg/kg): 52.3% | Kp at 24 h ([4]; oral, mean over doses 1-100 mg/kg, read-out: mean total brain/plasma level at 24 hours): 0.33 | Kp at 24 h ([4]; single oral dose 1 mg/kg, read-out: total brain/plasma levels at 24 hours): 0.35 | Kp at 24 h ([4]; single oral dose 3 mg/kg, read-out: total brain/plasma levels at 24 hours): 0.31 | Kp at 24 h ([4]; single oral dose 10 mg/kg, read-out: total brain/plasma levels at 24 hours): 0.3 | Kp at 24 h ([4]; single oral dose 30 mg/kg, read-out: total brain/plasma levels at 24 hours): 0.31 | Kp at 24 h ([4]; single oral dose 100 mg/kg, read-out: total brain/plasma levels at 24 hours): 0.37 | AUC(0-inf) ([4]; single oral dose 1 mg/kg): 1030 ng·h/mL | Cmax ([4]; single oral dose 1 mg/kg): 160 ng/mL | AUC(0-inf) ([4]; single oral dose 3 mg/kg): 3530 ng·h/mL | Cmax ([4]; single oral dose 3 mg/kg): 507 ng/mL | AUC(0-inf) ([4]; single oral dose 10 mg/kg): 13000 ng·h/mL | Cmax ([4]; single oral dose 10 mg/kg): 2030 ng/mL | AUC(0-inf) ([4]; single oral dose 30 mg/kg): 30600 ng·h/mL | Cmax ([4]; single oral dose 30 mg/kg): 4870 ng/mL | AUC(0-inf) ([4]; single oral dose 100 mg/kg): 123000 ng·h/mL | Cmax ([4]; single oral dose 100 mg/kg): 13900 ng/mL | IC50 [5]: 210 nM | IC50 [6]: > 25000 nM | IC50 [7]: 280 nM | IC50 [8]: 1200 nM | IC50 [9]: 180 nM | IC50 [10]: > 100000 nM | inhibition of hERG activity relative to vehicle control ([10]; 100 μM): 25.7% | effect on hERG channel activity ([10]; 0.3 to 30 μM): no effect | inhibition of human SHP-1 [11]: did not demonstrate any inhibition | inhibition or stimulation of >50% [12]: No effects of this magnitude were observed | IC50 [13]: > 25000 nM | IC50 [14]: 480 nM | IC50 [15]: 460 nM | IC50 [16]: 400 nM
